This is an account of results in ChEMBL document CHEMBL5247667, “Design, synthesis and characterizations of prodrugs of brexanolone” (Bioorg Med Chem Lett, 2023).

SMILES strings stand for the structures.

The nature of one data set: Prodrug conversion in beagle dog assessed as ratio of AUC for compound to BXN at 1 mg/kg,IV and measured after 60 mins by LC-MS/MS analysis. The format is ADME, organism-based, Canis lupus familiaris. As to conditions: in vivo, 1 h.
Turning to `CC(=O)[C@H]1CC[C@H]2[C@@H]3CC[C@H]4C[C@H](OC(=O)OCc5oc(=O)oc5C)CC[C@]4(C)[C@H]3CC[C@]12C`, the “Ratio AUC” value worked out at 2.4.

A short description of the next data set: Half life in Sprague-Dawley rat assessed as BXN at 1 mg/kg, IV administered for 30 mins measured after 24 hrs post dose by LC-MS/MS analysis. As to conditions: in vivo, 24.5 h. The format is ADME, organism-based.
Turning to `CC(=O)[C@H]1CC[C@H]2[C@@H]3CC[C@H]4C[C@H](OC(=O)OCc5oc(=O)oc5C)CC[C@]4(C)[C@H]3CC[C@]12C`, the t1/2 amounted to 1900 min.

A further data set is described as follows: Metabolic stability in human plasma assessed as half life at 1 uM incubated for 60 min by LC-MS/MS method. The format is ADME, cell-free.
Settings: not given
In the case of `COC(=O)N(C)CCOC(=O)O[C@@H]1CC[C@@]2(C)[C@@H](CC[C@@H]3[C@@H]2CC[C@]2(C)[C@@H](C(C)=O)CC[C@@H]32)C1`, the half-life at 1 µM is 289 min.

Turning to `CC(=O)[C@H]1CC[C@H]2[C@@H]3CC[C@H]4C[C@H](OC(=O)OCc5oc(=O)oc5C)CC[C@]4(C)[C@H]3CC[C@]12C`, the half-life at 1 µM amounted to 40 min.

A further data set can be described thus: Cmax in Sprague-Dawley rat assessed as BXN at 1 mg/kg, IV administered for 30 mins measured after 24 hrs post dose by LC-MS/MS analysis. The format is ADME, organism-based. Also on record: time 24.5 hrs, dose 1 mg/kg, route iv. Conditions: in vivo, 24.5 h.
In the case of `CC(=O)[C@H]1CC[C@H]2[C@@H]3CC[C@H]4C[C@H](OC(=O)OCc5oc(=O)oc5C)CC[C@]4(C)[C@H]3CC[C@]12C`, the maximum concentration (Cmax) was 0.107 µg/mL.

The next data set is described as follows: Half life in Sprague-Dawley rat at 1 mg/kg, IV administered for 30 mins measured after 24 hrs post dose by LC-MS/MS analysis. In kind it is ADME, organism-based. Conditions: in vivo, time 24.5 hrs.
Compound `CC(=O)[C@H]1CC[C@H]2[C@@H]3CC[C@H]4C[C@H](OC(=O)OCc5oc(=O)oc5C)CC[C@]4(C)[C@H]3CC[C@]12C` showed a half-life of 17 min.

A further data set in a line: Metabolic stability in Sprague-Dawley rat plasma assessed as half life at 1 uM incubated for 60 min by LC-MS/MS method.
Settings: not given
In kind it is ADME, cell-free.
On to `CC(=O)[C@H]1CC[C@H]2[C@@H]3CC[C@H]4C[C@H](OC(=O)OCc5oc(=O)oc5C)CC[C@]4(C)[C@H]3CC[C@]12C`, for which the half-life at 1 µM was less than 2 min.

The next data set is described as follows: AUClast in Sprague-Dawley rat assessed as BXN at 5 mg/kg, IM administered for 30 mins measured after 24 hrs post dose by LC-MS/MS analysis. The format is ADME, organism-based. On the set-up: time 24.5 hrs, dose 5 mg/kg, route im. Conditions: in vivo, 24.5 h.
For `CC(=O)[C@H]1CC[C@H]2[C@@H]3CC[C@H]4C[C@H](OC(=O)OCc5oc(=O)oc5C)CC[C@]4(C)[C@H]3CC[C@]12C`, the AUClast came out at 0.253 µg·h/mL.

Another data set is described as follows: Metabolic stability in beagle dog plasma assessed as half life at 1 uM incubated for 60 min by LC-MS/MS method. The format is ADME, cell-free, Canis lupus familiaris.
Settings: not given
Take `CC(=O)[C@H]1CC[C@H]2[C@@H]3CC[C@H]4C[C@H](OC(=O)OCc5oc(=O)oc5C)CC[C@]4(C)[C@H]3CC[C@]12C`: the half-life at 1 µM is 30 min.

A further data set can be described thus: Metabolic stability in beagle dog liver S9 fraction assessed as half life at 1 uM incubated for 60 min by LC-MS/MS method. The format is ADME, subcellular, Canis lupus familiaris.
Settings: not given
Turning to `CC(=O)[C@H]1CC[C@H]2[C@@H]3CC[C@H]4C[C@H](OC(=O)OCc5oc(=O)oc5C)CC[C@]4(C)[C@H]3CC[C@]12C`, the half-life at 1 µM is 2.3 min.

Another data set can be described thus: AUClast in beagle dog at 1 mg/kg, IV administered for 30 mins measured after 24 hrs post dose by LC-MS/MS analysis. Conditions: in vivo. Also on record: time 24.5 hrs, dose 1 mg/kg, route iv. In kind it is ADME, organism-based, Canis lupus familiaris.
`CC(=O)[C@H]1CC[C@H]2[C@@H]3CC[C@H]4C[C@H](OC(=O)OCc5oc(=O)oc5C)CC[C@]4(C)[C@H]3CC[C@]12C` showed an area under the curve AUC(0-t) at 24.5 h of 0.0626 µg·h/mL.

The next data set in a line: Prodrug conversion in Sprague-Dawley rat assessed as ratio of AUC for compound to BXN at 1 mg/kg,IV and measured after 60 mins by LC-MS/MS analysis. In kind it is ADME, organism-based. As to conditions: in vivo, 1 h.
With `CC(=O)[C@H]1CC[C@H]2[C@@H]3CC[C@H]4C[C@H](OC(=O)OCc5oc(=O)oc5C)CC[C@]4(C)[C@H]3CC[C@]12C`, the “Ratio AUC” value is reported as more than 253.

A further data set in a line: AUClast in beagle dog assessed as BXN at 5 mg/kg, IM administered for 30 mins measured after 24 hrs post dose by LC-MS/MS analysis. In kind it is ADME, organism-based, Canis lupus familiaris. Also on record: time 24.5 hrs, dose 5 mg/kg, route im. As to conditions: in vivo, 24.5 h.
Take `CC(=O)[C@H]1CC[C@H]2[C@@H]3CC[C@H]4C[C@H](OC(=O)OCc5oc(=O)oc5C)CC[C@]4(C)[C@H]3CC[C@]12C`: the AUClast was determined as 0.122 µg·h/mL.

A further data set can be described thus: AUClast in Sprague-Dawley rat at 1 mg/kg, IV administered for 30 mins measured after 24 hrs post dose by LC-MS/MS analysis. The format is ADME, organism-based. On the set-up: dose 1 mg/kg, time 24.5 hrs, route iv. As to conditions: in vivo.
Compound `CC(=O)[C@H]1CC[C@H]2[C@@H]3CC[C@H]4C[C@H](OC(=O)OCc5oc(=O)oc5C)CC[C@]4(C)[C@H]3CC[C@]12C` displayed an AUC(0-t) at 24.5 h of 0.0386 µg·h/mL.

A short description of a further data set: Prodrug conversion in Sprague-Dawley rat assessed as ratio of AUC for compound to BXN at 5 mg/kg,IM and measured after 60 mins by LC-MS/MS analysis. As to conditions: in vivo, 1 h. The format is ADME, organism-based.
Regarding `CC(=O)[C@H]1CC[C@H]2[C@@H]3CC[C@H]4C[C@H](OC(=O)OCc5oc(=O)oc5C)CC[C@]4(C)[C@H]3CC[C@]12C`, the “Ratio AUC” value is 2.9.

A short description of another data set: Cmax in beagle dog at 1 mg/kg, IV administered for 30 mins measured after 24 hrs post dose by LC-MS/MS analysis. The format is ADME, organism-based, Canis lupus familiaris. Also on record: time 24.5 hrs, dose 1 mg/kg, route iv. Conditions: in vivo.
`CC(=O)[C@H]1CC[C@H]2[C@@H]3CC[C@H]4C[C@H](OC(=O)OCc5oc(=O)oc5C)CC[C@]4(C)[C@H]3CC[C@]12C` returned a Cmax of 0.151 µg/mL.

The nature of a further data set: Cmax in beagle dog assessed as BXN at 5 mg/kg, IM administered for 30 mins measured after 24 hrs post dose by LC-MS/MS analysis. As to conditions: in vivo, 24.5 h. On the set-up: time 24.5 hrs, dose 5 mg/kg, route im. In kind it is ADME, organism-based, Canis lupus familiaris.
Turning to `CC(=O)[C@H]1CC[C@H]2[C@@H]3CC[C@H]4C[C@H](OC(=O)OCc5oc(=O)oc5C)CC[C@]4(C)[C@H]3CC[C@]12C`, the Cmax came out at 0.0266 µg/mL.

A further data set in a line: Half life in beagle dog assessed as BXN at 1 mg/kg, IV administered for 30 mins measured after 24 hrs post dose by LC-MS/MS analysis. In kind it is ADME, organism-based, Canis lupus familiaris. Conditions: in vivo, 24.5 h.
As to `CC(=O)[C@H]1CC[C@H]2[C@@H]3CC[C@H]4C[C@H](OC(=O)OCc5oc(=O)oc5C)CC[C@]4(C)[C@H]3CC[C@]12C`, the t1/2 came out at 28.4 min.

The next data set in a line: Prodrug conversion in beagle dog assessed as ratio of AUC for compound to BXN at 5 mg/kg,IM and measured after 60 mins by LC-MS/MS analysis. In kind it is ADME, organism-based, Canis lupus familiaris. Conditions: in vivo, 1 h.
In the case of `CC(=O)[C@H]1CC[C@H]2[C@@H]3CC[C@H]4C[C@H](OC(=O)OCc5oc(=O)oc5C)CC[C@]4(C)[C@H]3CC[C@]12C`, the “Ratio AUC” value is recorded as more than 122.

Another data set can be described thus: Cmax in Sprague-Dawley rat assessed as BXN at 5 mg/kg, IM administered for 30 mins measured after 24 hrs post dose by LC-MS/MS analysis. The format is ADME, organism-based. Also on record: time 24.5 hrs, dose 5 mg/kg, route im. As to conditions: in vivo, 24.5 h.
As for `CC(=O)[C@H]1CC[C@H]2[C@@H]3CC[C@H]4C[C@H](OC(=O)OCc5oc(=O)oc5C)CC[C@]4(C)[C@H]3CC[C@]12C`, the Cmax amounted to 0.0234 µg/mL.

Another data set can be described thus: Metabolic stability in human liver S9 fraction assessed as half life at 1 uM incubated for 60 min by LC-MS/MS method.
Settings: not given
In kind it is ADME, subcellular.
In the case of `COC(=O)N(C)CCOC(=O)O[C@@H]1CC[C@@]2(C)[C@@H](CC[C@@H]3[C@@H]2CC[C@]2(C)[C@@H](C(C)=O)CC[C@@H]32)C1`, the half-life at 1 µM stood at 0.7 min.

`CC(=O)[C@H]1CC[C@H]2[C@@H]3CC[C@H]4C[C@H](OC(=O)OCc5oc(=O)oc5C)CC[C@]4(C)[C@H]3CC[C@]12C`: the half-life at 1 µM worked out at 1.2 min.

A further data set can be described thus: Cmax in Sprague-Dawley rat at 1 mg/kg, IV administered for 30 mins measured after 24 hrs post dose by LC-MS/MS analysis. In kind it is ADME, organism-based. Also on record: time 24.5 hrs, dose 1 mg/kg, route iv. As to conditions: in vivo.
On to `CC(=O)[C@H]1CC[C@H]2[C@@H]3CC[C@H]4C[C@H](OC(=O)OCc5oc(=O)oc5C)CC[C@]4(C)[C@H]3CC[C@]12C`, for which the maximum concentration (Cmax) is 0.103 µg/mL.

The nature of another data set: Clearance in Sprague-Dawley rat at 1 mg/kg, IV administered for 30 mins measured after 24 hrs post dose by LC-MS/MS analysis. In kind it is ADME, organism-based. Conditions: in vivo, time 24.5 hrs.
With `CC(=O)[C@H]1CC[C@H]2[C@@H]3CC[C@H]4C[C@H](OC(=O)OCc5oc(=O)oc5C)CC[C@]4(C)[C@H]3CC[C@]12C`, the clearance was 26.4 L/h/kg.

Another data set is described as follows: Cmax in beagle dog assessed as BXN at 1 mg/kg, IV administered for 30 mins measured after 24 hrs post dose by LC-MS/MS analysis. In kind it is ADME, organism-based, Canis lupus familiaris. On the set-up: dose 1 mg/kg, time 24.5 hrs, route iv. Conditions: in vivo, 24.5 h.
Regarding `CC(=O)[C@H]1CC[C@H]2[C@@H]3CC[C@H]4C[C@H](OC(=O)OCc5oc(=O)oc5C)CC[C@]4(C)[C@H]3CC[C@]12C`, the Cmax stood at 0.241 µg/mL.

A further data set is described as follows: AUClast in beagle dog assessed as BXN at 1 mg/kg, IV administered for 30 mins measured after 24 hrs post dose by LC-MS/MS analysis. As to conditions: in vivo, 24.5 h. On the set-up: dose 1 mg/kg, time 24.5 hrs, route iv. The format is ADME, organism-based, Canis lupus familiaris.
As to `CC(=O)[C@H]1CC[C@H]2[C@@H]3CC[C@H]4C[C@H](OC(=O)OCc5oc(=O)oc5C)CC[C@]4(C)[C@H]3CC[C@]12C`, the AUClast was 0.148 µg·h/mL.

Another data set is described as follows: AUClast in Sprague-Dawley rat assessed as BXN at 1 mg/kg, IV administered for 30 mins measured after 24 hrs post dose by LC-MS/MS analysis. In kind it is ADME, organism-based. Conditions: in vivo, 24.5 h. Also on record: dose 1 mg/kg, time 24.5 hrs, route iv.
On to `CC(=O)[C@H]1CC[C@H]2[C@@H]3CC[C@H]4C[C@H](OC(=O)OCc5oc(=O)oc5C)CC[C@]4(C)[C@H]3CC[C@]12C`, for which the AUClast amounted to 0.113 µg·h/mL.

A short description of a further data set: Half life in beagle dog assessed as BXN at 5 mg/kg, IM administered for 30 mins measured after 24 hrs post dose by LC-MS/MS analysis. The format is ADME, organism-based, Canis lupus familiaris. As to conditions: in vivo, 24.5 h.
For `CC(=O)[C@H]1CC[C@H]2[C@@H]3CC[C@H]4C[C@H](OC(=O)OCc5oc(=O)oc5C)CC[C@]4(C)[C@H]3CC[C@]12C`, the t1/2 worked out at 618 min.

A further data set can be described thus: Half life in Sprague-Dawley rat assessed as BXN at 5 mg/kg, IM administered for 30 mins measured after 24 hrs post dose by LC-MS/MS analysis. As to conditions: in vivo, 24.5 h. The format is ADME, organism-based.
In the case of `CC(=O)[C@H]1CC[C@H]2[C@@H]3CC[C@H]4C[C@H](OC(=O)OCc5oc(=O)oc5C)CC[C@]4(C)[C@H]3CC[C@]12C`, the t1/2 amounted to 1730 min.
